The target in experiment [1] is Neuronal acetylcholine receptor. The experiment can be described thus: Binding affinity towards rat forebrain nicotinic acetylcholine receptor using [3H]EB as radioligand.
The target in experiment [2] is Neuronal acetylcholine receptor; alpha3/beta2 (Rattus norvegicus, UniProt P04757+P12390). The experiment can be described thus: Binding affinity towards rat Nicotinic acetylcholine receptor alpha3-beta2 expressed in HEK293 cells using [3H]EB as radioligand. Type of experiment: cell-based.
Chain of Neuronal acetylcholine receptor; alpha3/beta2 (P04757 whole entry): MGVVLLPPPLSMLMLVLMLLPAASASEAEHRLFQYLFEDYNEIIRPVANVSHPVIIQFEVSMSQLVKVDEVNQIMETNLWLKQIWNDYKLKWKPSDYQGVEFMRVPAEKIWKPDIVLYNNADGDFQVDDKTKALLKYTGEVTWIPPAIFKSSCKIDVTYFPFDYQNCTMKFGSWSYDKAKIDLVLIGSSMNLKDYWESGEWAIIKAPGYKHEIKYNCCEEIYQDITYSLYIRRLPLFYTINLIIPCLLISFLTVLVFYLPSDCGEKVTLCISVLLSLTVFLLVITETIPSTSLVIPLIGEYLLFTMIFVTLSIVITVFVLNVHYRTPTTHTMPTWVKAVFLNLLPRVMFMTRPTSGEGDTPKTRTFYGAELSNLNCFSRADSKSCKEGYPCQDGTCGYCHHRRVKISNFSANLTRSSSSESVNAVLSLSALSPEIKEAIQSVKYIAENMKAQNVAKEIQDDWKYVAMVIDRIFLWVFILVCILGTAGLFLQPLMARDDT
Chain of Neuronal acetylcholine receptor; alpha3/beta2 (P12390 whole entry): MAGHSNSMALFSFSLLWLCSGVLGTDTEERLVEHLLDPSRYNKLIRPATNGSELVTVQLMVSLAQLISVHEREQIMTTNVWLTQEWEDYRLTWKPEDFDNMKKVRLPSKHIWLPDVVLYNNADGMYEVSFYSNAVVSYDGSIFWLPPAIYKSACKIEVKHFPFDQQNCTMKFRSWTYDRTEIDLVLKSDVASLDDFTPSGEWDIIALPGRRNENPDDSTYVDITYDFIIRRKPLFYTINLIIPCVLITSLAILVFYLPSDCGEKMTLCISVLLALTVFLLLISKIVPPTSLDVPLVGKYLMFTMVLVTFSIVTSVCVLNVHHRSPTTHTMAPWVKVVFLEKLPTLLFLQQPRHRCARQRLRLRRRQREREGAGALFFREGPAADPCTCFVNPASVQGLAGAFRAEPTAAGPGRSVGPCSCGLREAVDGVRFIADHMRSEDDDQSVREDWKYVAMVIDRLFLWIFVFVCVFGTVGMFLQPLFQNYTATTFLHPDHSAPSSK
Experiment [3] can be described thus: Ratio between the binding affinities towards rat alpha3-beta4 and forebrain nACh receptor using [3H]EB as radioligand.
In experiment [4] the target is Neuronal acetylcholine receptor; alpha4/beta4 (Rattus norvegicus, UniProt P09483+P12392). The experiment can be described thus: Binding affinity towards rat Nicotinic acetylcholine receptor alpha4-beta4 expressed in HEK293 cells using [3H]EB as radioligand. Type of experiment: cell-based.
Chain of Neuronal acetylcholine receptor; alpha4/beta4 (P09483 whole entry): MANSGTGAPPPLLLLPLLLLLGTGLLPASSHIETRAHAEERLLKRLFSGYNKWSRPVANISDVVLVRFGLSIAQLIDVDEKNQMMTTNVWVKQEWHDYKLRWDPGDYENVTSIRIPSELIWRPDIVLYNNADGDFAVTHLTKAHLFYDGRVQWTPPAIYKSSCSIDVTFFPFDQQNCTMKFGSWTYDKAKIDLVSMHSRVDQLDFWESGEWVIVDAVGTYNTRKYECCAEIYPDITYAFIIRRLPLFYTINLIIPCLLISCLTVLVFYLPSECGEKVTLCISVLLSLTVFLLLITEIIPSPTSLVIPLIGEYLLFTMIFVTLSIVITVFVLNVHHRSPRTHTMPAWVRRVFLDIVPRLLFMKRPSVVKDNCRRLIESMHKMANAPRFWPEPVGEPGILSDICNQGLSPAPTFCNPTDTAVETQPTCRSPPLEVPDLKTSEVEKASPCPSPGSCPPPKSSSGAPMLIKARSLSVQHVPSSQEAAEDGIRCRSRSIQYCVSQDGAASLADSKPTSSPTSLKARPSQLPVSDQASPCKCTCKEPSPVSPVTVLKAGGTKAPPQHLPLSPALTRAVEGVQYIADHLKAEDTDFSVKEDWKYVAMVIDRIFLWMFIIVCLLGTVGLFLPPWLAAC
Chain of Neuronal acetylcholine receptor; alpha4/beta4 (P12392 whole entry): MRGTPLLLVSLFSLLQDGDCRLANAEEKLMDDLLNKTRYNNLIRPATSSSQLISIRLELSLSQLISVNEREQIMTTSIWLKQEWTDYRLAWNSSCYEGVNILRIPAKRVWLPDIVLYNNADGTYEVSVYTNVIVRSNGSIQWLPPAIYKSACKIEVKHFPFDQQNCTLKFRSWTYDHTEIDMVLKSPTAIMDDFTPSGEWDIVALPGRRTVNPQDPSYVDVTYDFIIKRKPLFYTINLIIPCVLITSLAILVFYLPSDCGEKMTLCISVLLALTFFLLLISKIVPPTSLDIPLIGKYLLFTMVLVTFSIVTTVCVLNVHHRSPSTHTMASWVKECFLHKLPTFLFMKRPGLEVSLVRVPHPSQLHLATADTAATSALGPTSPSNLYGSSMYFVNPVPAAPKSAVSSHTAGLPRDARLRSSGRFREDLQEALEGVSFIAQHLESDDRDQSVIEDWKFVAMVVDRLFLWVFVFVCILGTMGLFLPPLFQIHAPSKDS
The target in experiment [5] is Neuronal acetylcholine receptor; alpha4/beta2 (Rattus norvegicus, UniProt P09483+P12390). The experiment can be described thus: Binding affinity towards rat Nicotinic acetylcholine receptor alpha4-beta2 expressed in HEK293 cells using [3H]EB as radioligand. Type of experiment: cell-based.
Chain of Neuronal acetylcholine receptor; alpha4/beta2 (P09483 whole entry): as the sequence (P09483 whole entry) above
Chain of Neuronal acetylcholine receptor; alpha4/beta2 (P12390 whole entry): as the sequence (P12390 whole entry) above
Experiment [6] has as its target Neuronal acetylcholine receptor; alpha3/beta4 (Rattus norvegicus, UniProt P04757+P12392). The experiment can be described thus: Binding affinity towards rat Nicotinic acetylcholine receptor alpha3-beta4 expressed in HEK293 cells using [3H]EB as radioligand. It is filed as cell-based.
Experiment [7] can be described thus: Binding affinity towards rat alpha2-beta4 nACh receptor expressed in HEK293 cells using [3H]EB as radioligand. It is filed as cell-based.
A short description of experiment [8]: Ratio between the binding affinities towards rat alpha3-beta4 and alpha3-beta2 nACh receptor using [3H]EB as radioligand.
Experiment [9] in a line: Ratio between the binding affinities towards rat alpha2-beta4 and alpha2-beta2 nACh receptor using [3H]-EB as radioligand.
The target in experiment [10] is Neuronal acetylcholine receptor; alpha2/beta2 (Rattus norvegicus, UniProt P12389+P12390). The experiment can be described thus: Binding affinity towards rat nicotinic acetylcholine receptor alpha2-beta2 expressed in HEK293 cells using [3H]EB as radioligand. Type of experiment: cell-based.
Chain of Neuronal acetylcholine receptor; alpha2/beta2 (P12389 whole entry): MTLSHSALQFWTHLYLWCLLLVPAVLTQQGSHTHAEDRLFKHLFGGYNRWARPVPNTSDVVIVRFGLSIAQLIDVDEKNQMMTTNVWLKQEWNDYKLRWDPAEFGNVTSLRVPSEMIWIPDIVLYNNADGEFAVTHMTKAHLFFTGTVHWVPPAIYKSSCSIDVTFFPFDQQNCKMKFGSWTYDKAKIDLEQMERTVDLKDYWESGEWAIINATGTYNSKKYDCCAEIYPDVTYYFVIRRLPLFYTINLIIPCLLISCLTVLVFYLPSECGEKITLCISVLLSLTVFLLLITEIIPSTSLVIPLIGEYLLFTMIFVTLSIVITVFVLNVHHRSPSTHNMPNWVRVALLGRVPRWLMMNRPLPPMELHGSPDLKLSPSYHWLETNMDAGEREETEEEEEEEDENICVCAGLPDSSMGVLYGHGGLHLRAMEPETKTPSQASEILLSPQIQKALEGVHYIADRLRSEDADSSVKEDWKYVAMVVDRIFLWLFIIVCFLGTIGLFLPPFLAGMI
Chain of Neuronal acetylcholine receptor; alpha2/beta2 (P12390 whole entry): as the sequence (P12390 whole entry) above
The nature of experiment [11]: Ratio between the binding affinities towards rat alpha4-beta4 and alpha4-beta2 nACh receptor using [3H]EB as radioligand.

Chain of Neuronal acetylcholine receptor; alpha3/beta4 (P04757 whole entry): as the sequence (P04757 whole entry) above
Chain of Neuronal acetylcholine receptor; alpha3/beta4 (P12392 whole entry): as the sequence (P12392 whole entry) above

The term Ki denotes the dissociation constant of the complex between target and ligand, obtained from inhibition or displacement. Low readings indicate a stronger hold on the target, high ones a looser hold on the target. For `Ic1cncc(O[C@H]2CCN2)c1`, the Ki in experiment [1] was 0.14 nM; in experiment [2], 0.42 nM; in experiment [4] it was 24 nM; in [5] it was 0.062 nM; in [6] it was 290 nM; in [7], 47 nM. Also, the affinity in [10] corresponds to a Ki of 0.031 nM. In addition, the Ratio worked out at 2070 in [3], 690 in experiment [8], 1520 in [9] and 387 in experiment [11].
Turning to `c1cncc(OC[C@@H]2CCN2)c1`, the Ki in experiment [2] worked out at 0.24 nM; in experiment [4], 7.1 nM; in experiment [5], 0.14 nM; in experiment [6], 72 nM; in experiment [7] it was 17 nM; in [10], 0.074 nM.
`Clc1ccc(C2CC3CCC2N3)cn1` (racemic; form 1) [EPIBATIDINE] registered an inhibitory constant (Ki) in experiment [7] of 0.087 nM.
In turn, `Clc1ccc(C2CC3CCC2N3)cn1` (racemic; form 2) [EPIBATIDINE] returned a Ki in experiment [7] of 0.13 nM. This Ki and that of the compound before are within 1.5-fold of each other.
As to `CC(=O)OCC[N+](C)(C)C` [ACETYLCHOLINE], the Ki in experiment [7] is 180 nM; in [10] it was 11 nM.
Consider `C[N+](C)(C)CCOC(N)=O` [CARBACHOL], for which the Ki in [2] was 1100 nM; in [4] it was 1300 nM; in [5], 590 nM; in experiment [6], 4800 nM; in experiment [7], 640 nM; in experiment [10], 210 nM.
Turning to `C[N+](C)(C)CCO` [CHOLINE], the inhibitory constant (Ki) was 42000 nM in experiment [1]; 37000 nM in experiment [2]; 34000 nM in [4]; 37000 nM in experiment [5]; 48000 nM in [6]; 21000 nM in experiment [7]. The compound also showed a Ki in experiment [10] of 18000 nM. Moreover, the Ratio in experiment [3], in experiment [8], in experiment [9] and in [11] was 1 each time.
With `O=c1cccc2n1C[C@@H]1CNC[C@H]2C1` [CYTISINICLINE], the inhibitory constant (Ki) in [1] stood at 2.5 nM; in [2], 37 nM; in experiment [4], 2.2 nM; in experiment [5] it was 1.5 nM; in [7], 5.5 nM; in experiment [10], 1.4 nM. The Ratio in experiment [3] was determined as 84; in experiment [8], 6; in experiment [9], 4; in experiment [11] it was 1.
As to `C[N+]1(C)CCN(c2ccccc2)CC1` [DIMETHYLPHENYLPIPERAZINIUM IODIDE], the inhibition constant Ki in experiment [2] was determined as 42 nM; in experiment [6], 800 nM; in experiment [7], 1300 nM; in experiment [10], 28 nM.
The compound `CN1CCC[C@H]1c1cccnc1` [NICOTINE] came in with an inhibition constant Ki in experiment [7] of 130 nM.

The values are drawn from ChEMBL document CHEMBL1147509, “Pharmacology of the agonist binding sites of rat neuronal nicotinic receptor subtypes expressed in HEK 293 cells” (Bioorg Med Chem Lett, 2004).
